Structures can show the parent of a compound that is named as a salt.
system: HIV; experiment: MT4 Assay (anti-HIV activity); assay type: cell-based; settings: Human immunodeficiency virus 1, 96 h, read-out: HIV MT4 Assay IC50, HTLV-1 transformed cell line MT-4, cell titer glo, 10 point dose response curve
Method in brief: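 MT-4 cells (HTLV-1 transformed) were used for antiviral activity and cytotoxicity, run in parallel, with luminescence read by CellTiter-Glo 96 hours later. Percent inhibition was expressed against the no-compound control. IC50s came from 10-point curves of 3-4-fold serial dilutions spanning >1000-fold.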

| SMILES | IC50 |
| --- | --- |
| Cc1c(-c2c([C@H](OC(C)(C)C)C(=O)O)n(C)c(=O)c3cc(OCCF)ccc23)ccc2c1CCCO2 [Example 141, (2S)-2-(tert-butoxy)-2-[7-(2-fluoroethoxy)-2-methyl-4-(5-methyl-3,4-dihydro-2H-1-benzopyran-6-yl)-1-oxo-1,2-dihydroisoquinolin-3-yl]acetic acid] | 0.03 µM |
| Cc1c(-c2c(C(OC(C)(C)C)C(=O)O)n(C)c(=O)c3cc(OCc4cccs4)ccc23)ccc2c1CCCO2 (centres unmarked) [Example 142, 2-(tert-butoxy)-2-[2-methyl-4-(5-methyl-3,4-dihydro-2H-1-benzopyran-6-yl)-1-oxo-7-(thiophen-2-ylmethoxy)-1,2-dihydroisoquinolin-3-yl]acetic acid] | 0.03 µM |
| Cc1c(-c2c([C@H](OC(C)(C)C)C(=O)O)n(C)c(=O)c3cc(OCc4ccccn4)ccc23)cc(F)c2c1CCCO2 [Example 143, (2S)-2-(tert-butoxy)-2-[4-(8-fluoro-5-methyl-3,4-dihydro-2H-1-benzopyran-6-yl)-2-methyl-1-oxo-7-(pyridin-2-ylmethoxy)-1,2-dihydroisoquinolin-3-yl]acetic acid] | 0.03 µM |
| Cc1c(-c2c([C@H](OC(C)(C)C)C(=O)O)n(C)c(=O)c3cc(OCc4ccccn4)ccc23)ccc2c1CCCO2 [Example 144, (2S)-2-(tert-butoxy)-2-[2-methyl-4-(5-methyl-3,4-dihydro-2H-1-benzopyran-6-yl)-1-oxo-7-(pyridin-2-ylmethoxy)-1,2-dihydroisoquinolin-3-yl]acetic acid] | 0.04 µM |
| Cc1c(-c2c(C(OC(C)(C)C)C(=O)O)n(C)c(=O)c3cc(OCc4ccc(F)cc4)ccc23)cc(F)c2c1CCCO2 (centres unmarked) [Example 145, 2-(tert-butoxy)-2-[4-(8-fluoro-5-methyl-3,4-dihydro-2H-1-benzopyran-6-yl)-7-[(4-fluorophenyl)methoxy]-2-methyl-1-oxo-1,2-dihydroisoquinolin-3-yl]acetic acid] | 0.11 µM |
| Cc1c(-c2c(C(OC(C)(C)C)C(=O)O)n(C)c(=O)c3cc(OCc4ccc(OC(F)(F)F)cc4)ccc23)ccc2c1CCCO2 (centres unmarked) [Example 146, 2-(tert-butoxy)-2-[2-methyl-4-(5-methyl-3,4-dihydro-2H-1-benzopyran-6-yl)-1-oxo-7-{[4-(trifluoromethoxy)phenyl]-methoxy}-1,2-dihydroisoquinolin-3-yl]acetic acid] | 0.26 µM |
| Cc1c(-c2c([C@H](OC(C)(C)C)C(=O)O)n(C)c(=O)c3cc(OCc4ccc(F)cc4)ccc23)ccc2c1CCCO2 [Example 147, (2S)-2-(tert-butoxy)-2-{7-[(4-fluorophenyl)methoxy]-2-methyl-4-(5-methyl-3,4-dihydro-2H-1-benzopyran-6-yl)-1-oxo-1,2-dihydroisoquinolin-3-yl}acetic acid] | 0.02 µM |
| Cc1c(-c2c([C@H](OC(C)(C)C)C(=O)O)n(C)c(=O)c3cc(OCc4ccc(F)cc4F)ccc23)ccc2c1CCCO2 [Example 148, (2S)-2-(tert-butoxy)-2-{7-[(2,4-difluorophenyl)methoxy]-2-methyl-4-(5-methyl-3,4-dihydro-2H-1-benzopyran-6-yl)-1-oxo-1,2-dihydroisoquinolin-3-yl}acetic acid] | 0.05 µM |
| CC1CCOc2ccc(-c3c(C(OC(C)(C)C)C(=O)O)n(C)c(=O)c4ccccc34)cc21 (centres unmarked) [Example 149, [(1,1-dimethylethyl)oxy][2-methyl-4-(4-methyl-3,4-dihydro-2H-chromen-6-yl)-1-oxo-1,2-dihydro-3-isoquinolinyl]acetic acid] | 1.17 µM |
| Cc1c(-c2c(C(OC(C)(C)C)C(=O)O)n(C)c(=O)c3ccccc23)cc(F)c2c1CCCO2 (centres unmarked) [Example 150, [(1,1-dimethylethyl)oxy][4-(8-fluoro-5-methyl-3,4-dihydro-2H-chromen-6-yl)-2-methyl-1-oxo-1,2-dihydro-3-isoquinolinyl]acetic acid] | 0.16 µM |
| Cn1c(C(OC(C)(C)C)C(=O)O)c(-c2ccc3c(c2)CCC3)c2ccccc2c1=O (centres unmarked) [Example 152, 2-(tert-butoxy)-2-(4-(2,3-dihydro-1H-inden-5-yl)-2-methyl-1-oxo-1,2-dihydroisoquinolin-3-yl)acetic acid] | 0.43 µM |
| Cn1c(C(OC(C)(C)C)C(=O)O)c(-c2ccc3ncsc3c2)c2ccccc2c1=O (centres unmarked) [Example 153, 2-(4-(benzo[d]thiazol-6-yl)-2-methyl-1-oxo-1,2-dihydroisoquinolin-3-yl)-2-(tert-butoxy)acetic acid] | 3.88 µM |
| Cn1c(C(OC(C)(C)C)C(=O)O)c(-c2ccc(Cl)cc2)c2ccccc2c1=O (centres unmarked) [Example 154, [4-(4-chlorophenyl)-2-methyl-1-oxo-1,2-dihydro-3-isoquinolinyl][(1,1-dimethylethyl)oxy]acetic acid] | 2.09 µM |
| Cc1occc1-c1c(C(OC(C)(C)C)C(=O)O)n(C)c(=O)c2ccccc12 (centres unmarked) [Example 155, [(1,1-dimethylethyl)oxy][2-methyl-4-(2-methyl-3-furanyl)-1-oxo-1,2-dihydro-3-isoquinolinyl]acetic] | 13.3 µM |
| Cn1c(C(OC(C)(C)C)C(=O)O)c(-c2ccccc2)c2ccccc2c1=O (centres unmarked) [Example 156, [(1,1-dimethylethyl)oxy](2-methyl-1-oxo-4-phenyl-1,2-dihydro-3-isoquinolinyl)acetic acid] | 0.8 µM |
| Cn1cc(-c2c(C(OC(C)(C)C)C(=O)O)n(C)c(=O)c3ccccc23)cn1 (centres unmarked) [Example 157, [(1,1-dimethylethyl)oxy][2-methyl-4-(1-methyl-1H-pyrazol-4-yl)-1-oxo-1,2-dihydro-3-isoquinolinyl]acetic acid] | 41.6 µM |
| Cn1c(C(OC(C)(C)C)C(=O)O)c(-c2cc3c4c(c2)CCCN4CCC3)c2ccccc2c1=O (centres unmarked) [Example 158, [(1,1-dimethylethyl)oxy][2-methyl-1-oxo-4-(2,3,6,7-tetrahydro-1H,5H-pyrido[3,2,1-ij]quinolin-9-yl)-1,2-dihydro-3-isoquinolinyl]acetic acid] | 50 µM |
| COc1ccc(Cc2ccc3c(-c4ccc(C)c(C)c4)c(C(OC(C)(C)C)C(=O)O)n(C)c(=O)c3c2)cc1 (centres unmarked) [Example 171, [(1,1-dimethylethyl)oxy](4-(3,4-dimethylphenyl)-2-methyl-7-{[4-(methyloxy)phenyl]methyl}-1-oxo-1,2-dihydro-3-isoquinolinyl)acetic acid] | 1.3 µM |
| Cc1ccc(-c2c(C(OC(C)(C)C)C(=O)O)n(C)c(=O)c3cc(CC(C)C)ccc23)cc1C (centres unmarked) [Example 172, [(1,1-dimethylethyl)oxy][4-(3,4-dimethylphenyl)-2-methyl-7-(2-methylpropyl)-1-oxo-1,2-dihydro-3-isoquinolinyl]acetic acid] | 0.27 µM |
| Cc1ccc(-c2c(C(OC(C)(C)C)C(=O)O)n(C)c(=O)c3cc(C(N)=O)ccc23)cc1C (centres unmarked) [Example 178, [7-(aminocarbonyl)-4-(3,4-dimethylphenyl)-2-methyl-1-oxo-1,2-dihydro-3-isoquinolinyl][(1,1-dimethylethyl)oxy]acetic acid] | 50 µM |
| Cc1ccc(-c2c(C(OC(C)(C)C)C(=O)O)n(C)c(=O)c3cc(CN)ccc23)cc1C (centres unmarked) [Example 179, [7-(aminomethyl)-4-(3,4-dimethylphenyl)-2-methyl-1-oxo-1,2-dihydro-3-isoquinolinyl][(1,1-dimethylethyl)oxy]acetic acid-TFA salt] | 50 µM |
| Cc1ccc(-c2c(C(OC(C)(C)C)C(=O)O)n(C)c(=O)c3cc(CNCc4ccc5c(-c6ccc(C)c(C)c6)c(C(OC(C)(C)C)C(=O)O)n(C)c(=O)c5c4)ccc23)cc1C (centres unmarked) [Example 180, 2,2′-(iminobis{methanediyl[4-(3,4-dimethylphenyl)-2-methyl-1-oxo-1,2-dihydroisoquinoline-7,3-diyl]})bis{[(1,1-dimethylethyl)oxy]acetic acid}] | 12.4 µM |
| Cc1ccc(-c2c(C(OC(C)(C)C)C(=O)O)n(C)c(=O)c3cc(CN4CCOCC4)ccc23)cc1C (centres unmarked) [Example 181] | 0.27 µM |
| Cc1ccc(-c2c(C(OC(C)(C)C)C(=O)O)n(C)c(=O)c3cc(CN(Cc4ccccn4)Cc4ccccn4)ccc23)cc1C (centres unmarked) [Example 182, 2-(7-((bis(pyridin-2-ylmethyl)amino)methyl)-4-(3,4-dimethylphenyl)-2-methyl-1-oxo-1,2-dihydroisoquinolin-3-yl)-2-(tert-butoxy)acetic acid] | 1.38 µM |
| Cc1ccc(-c2c(C(OC(C)(C)C)C(=O)O)n(C)c(=O)c3cc(CNCc4ccccn4)ccc23)cc1C (centres unmarked) [Example 183, 2-(tert-butoxy)-2-(4-(3,4-dimethylphenyl)-2-methyl-1-oxo-7-(((pyridin-2-ylmethyl)amino)methyl)-1,2-dihydroisoquinolin-3-yl)acetic acid] | 3.61 µM |
| CC(=O)NCc1ccc2c(-c3ccc(C)c(C)c3)c(C(OC(C)(C)C)C(=O)O)n(C)c(=O)c2c1 (centres unmarked) [Example 184, 2-(7-(acetamidomethyl)-4-(3,4-dimethylphenyl)-2-methyl-1-oxo-1,2-dihydroisoquinolin-3-yl)-2-(tert-butoxy)acetic acid] | 31.4 µM |

same assay, conditions: read-out: HIV MT4 Assay IC50; HTLV-1 transformed cell line MT-4; 96 hours; cell titer glo; 10 point dose response curve

| SMILES | IC50 |
| --- | --- |
| Cc1c(-c2c([C@@H](OC(C)(C)C)C(=O)O)n(C)c(=O)c3ccccc23)cc(F)c2c1CCCO2 [Example 160, (2R)-2-(tert-butoxy)-2-[4-(8-fluoro-5-methyl-3,4-dihydro-2H-1-benzopyran-6-yl)-2-methyl-1-oxo-1,2-dihydroisoquinolin-3-yl]acetic acid] | 41.6 µM |
| Cc1c(-c2c([C@@H](OC(C)(C)C)C(=O)O)n(C)c(=O)c3ccccc23)cc(F)c2c1CCCO2 [Example 161, (2R)-2-(tert-butoxy)-2-[4-(8-fluoro-5-methyl-3,4-dihydro-2H-1-benzopyran-6-yl)-2-methyl-1-oxo-1,2-dihydroisoquinolin-3-yl]acetic acid] | 7.21 µM |
| Cc1c(-c2c([C@H](OC(C)(C)C)C(=O)O)n(C)c(=O)c3ccccc23)cc(F)c2c1CCCO2 [Example 162, (2S)-2-(tert-butoxy)-2-[4-(8-fluoro-5-methyl-3,4-dihydro-2H-1-benzopyran-6-yl)-2-methyl-1-oxo-1,2-dihydroisoquinolin-3-yl]acetic acid] | 4.19 µM |
